The values below are quoted from earlier work in US20230310434A1, “METHODS OF REDUCING THE LIKELIHOOD OF CARCINOID HEART DISEASE IN PATIENTS WITH NEUROENDOCRINE TUMORS” (TerSera Therapeutics LLC, priority 2022, published 2023).

The test system of data set [1] is patients with carcinoid syndrome not adequately controlled with SSA therapy. Particulars: TELESTAR; TE 250 or 500 mg three times daily; patients on stable dose SSA.
For data set [2], the system named is patients with carcinoid syndrome (CS) diarrhea. The conditions noted are these: TELECAST
Where [3] appears, read: TE 250 or 500 mg three times daily, patients on stable dose SSA.

`CCOC(=O)[C@@H](N)Cc1ccc(-c2cc(O[C@H](c3ccc(Cl)cc3-n3ccc(C)n3)C(F)(F)F)nc(N)n2)cc1` [TE, (S)-ethyl 2-amino-3-(4-(2-amino-6-((R)-1-(4-chloro-2-(3-methyl-1H-pyrazol-1-yl)phenyl)-2,2,2-trifluoroethoxy)pyrimidin-4-yl)phenyl)propanoate]: the “frequency of bowel movements” value in data set [1] and in data set [2] (setting [3]) was “reduced” throughout. The “urinary 5-HIAA levels” value in data set [1] and in data set [2] (setting [3]) was “reduced” in each case. The “efficacy when added to SSAs to treat carcinoid syndrome diarrhea” value in data set [2] (TE 250 or 500 mg three times daily added to SSAs) was “effective”.
